Assay [1] deals with cell growth in the presence of DFMO. The assay can be described thus: Growth inhibition assay in combination with DFMO. Also: 0.5 µM SPD. In kind it is cell-based. The following applies: 144 h. The protocol:
Medias were obtained from Mediatech, Inc. (Hemdon, Va.) and serums from Gibco BRL (Gaithersburg, Md.). 50 U/ml penicillin, 50 μg/ml streptomycin and 2 mM L-glutamine (all from Bio Whittaker, Walkersville, Md.) were included in all cultures. […] When cells were cultured with polyamines or ORI compounds, 1 mM aminoguanidine (AG; Sigma) was included to inhibit serum amine oxidase activity.

Assay [2] concerns epidermal ornithine decarboxylase activity. The following applies: topical application of 20 μmole 2 hr after the TPA treatment; cited from earlier work.
The target of assay [3] is T1, ornithine decarboxylase (ODC) (Homo sapiens, UniProt P11926).
T1 sequence (P11926 1-461): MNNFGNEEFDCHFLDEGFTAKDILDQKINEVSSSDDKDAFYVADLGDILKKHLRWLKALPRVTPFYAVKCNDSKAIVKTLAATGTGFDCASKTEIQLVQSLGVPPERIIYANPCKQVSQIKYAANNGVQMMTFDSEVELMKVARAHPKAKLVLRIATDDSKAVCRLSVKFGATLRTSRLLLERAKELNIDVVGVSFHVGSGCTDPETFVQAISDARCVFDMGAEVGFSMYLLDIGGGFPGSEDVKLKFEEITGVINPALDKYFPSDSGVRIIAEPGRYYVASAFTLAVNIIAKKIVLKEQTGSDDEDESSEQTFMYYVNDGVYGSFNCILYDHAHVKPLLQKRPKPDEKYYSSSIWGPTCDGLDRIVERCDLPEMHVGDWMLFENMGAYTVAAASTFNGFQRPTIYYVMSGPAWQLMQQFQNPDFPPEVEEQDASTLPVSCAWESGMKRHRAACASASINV
As to conditions: reversible / cofactor-interaction ODC inhibitors, literature; cited from earlier work.

Assay [4] addresses T2, spermidine synthase (Homo sapiens, UniProt P19623).
T2 sequence (P19623 1-302): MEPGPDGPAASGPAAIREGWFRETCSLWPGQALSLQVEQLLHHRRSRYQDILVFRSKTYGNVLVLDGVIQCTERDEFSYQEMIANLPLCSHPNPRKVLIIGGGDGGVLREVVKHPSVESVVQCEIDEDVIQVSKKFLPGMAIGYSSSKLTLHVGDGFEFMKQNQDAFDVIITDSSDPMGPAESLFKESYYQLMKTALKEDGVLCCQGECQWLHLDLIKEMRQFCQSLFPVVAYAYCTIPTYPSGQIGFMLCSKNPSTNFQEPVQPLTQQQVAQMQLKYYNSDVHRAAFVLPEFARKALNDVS
As to conditions: cited from earlier work.

Assay [5] deals with hair regrowth. As to the kind of experiment: Animal hair growth inhibition assay. In kind it is in vivo, mice.
Assay [6] relates to L1210 leukemia cells. The following applies: cited from earlier work.
For assay [7], the system named is fiber growth. The following applies: sheep treated systemically; cited from earlier work.
For assay [8], the system named is cultured follicles. As to conditions: cited from earlier work.
In assay [9] the test system is cell growth when given with DFMO. As to the kind of experiment: EC50 determined as disclosed in Weeks et al. (cell growth when given with DFMO). In kind it is cell-based. As to conditions: determined as in Weeks et al. Exp Cell Res. 2000.
Assay [10] deals with cultured hair follicles. The following applies: 50 μM polyamine added to MGBG (10 mM) treated cultured hair follicles; cited from earlier work.
[11] abbreviates: no additional biosynthesis inhibitor (None, or antizyme inducer; agmatine 2%), once a day for 18 days.
[12] abbreviates: mutant L1210 cells with greatly reduced polyamine transport activity.
Where [13] appears, read: compound with DFMO at 2%, 70% ethanol, pH 7.0, applied once a day for 18 days.

Structures are written as SMILES. Where two headings read alike, the source gives them in different places.

Broadly, the EC50 is the concentration at which the effect is half-maximal. `CC(C)CC(C)NCCCCC(N)C(=O)NCCCNCCCCNCCCN` (single isomer, unassigned) [VA21]: the EC50 in [1] (read-out: Ave EC50 Value) and in assay [1] (read-out: Ave EC50 value) was 0.65 µM each time.

Turning to `NCCCCCCCN` [1,7-diaminoheptane], the “inhibition of the induction of ODC activity” value (shortened to “inhibition … of ODC activity”) in assay [2] is reported as 90%. One may read the Ki as a measure of affinity in units of concentration, obtained from inhibition or displacement. For `CC(N)CCON` (stereo not shown) [1-Aminooxy-3-aminobutane], in assay [3], the Ki was 0.0028 µM. As for `NCCCON` [1-Aminooxy-3-aminopropane], the inhibitory constant (Ki) in [3] is 0.0032 µM. What is called IC50 is the concentration needed to halve the response being measured. Take `CCCCCN` [1-pentylamine]: the IC50 in [4] (read-out: IC50) is 3.6 µM. For the compound `C=CCCCN` [5-amino-1-pentene], the IC50 result in assay [4] was “respectable activity”. `N=C(N)NCCCCN` [Agmatine, reference compound]: in [5] (setting [11]), the “% HGI” value was 30%.

Turning to `CCCCN` [Compound 1-butylamine, 1-butylamine], the Ki in assay [4] was 0.52 µM. Further, the IC50 in assay [4] (read-out: IC50) is 3.8 µM.

With `NCCC[C@](N)(C(=O)O)C(F)F` [DFMO, α-difluoromethylornithine], in [6] (setting [12]), the “increase in median survival time” value is given as 87% and the mice cured is 13 of 40. The “increase in median survival time” value in [6] (parental L1210 cell line) is listed as 22%. Moreover, in assay [5] (biosynthesis inhibitor alone, compound None (DFMO at 2%; Vaniqua 13.9% DFMO)), the “% HGI” value stood at 28%. For the same compound, in assay [7], the fiber diameter increase is given as 14% and the fiber growth decline is given as 10%. Also, the “effect on the growth of cultured follicles” value in assay [8] (in culture media: DFMO 500 μM, N-butyl-1,3-diaminopropane 50 μM) is recorded as “no effect”. Take `CCCCCCCCCCCCCCCCCC(=O)NCCCC[C@@H](N)C(=O)NCCCNCCCCNCCCN` [IB2]: the EC50 in [1] (read-out: Ave EC50 value) worked out at 0.083 µM. Still for that read-out and setting: next, `CCCCCCCCCCCCCCCC(=O)NCCCC[C@@H](N)C(=O)NCCCNCCCCNCCCN` [IB4]: 0.084 µM. As to `CCCCCCCCC(=O)NCCCC[C@@H](N)C(=O)NCCCNCCCCNCCCN` [IB6], in [1] (read-out: Ave EC50 value), the EC50 came to 2.2 µM. The same measure, in the same setting: to `CCCCCCCC(=O)NCCCC[C@@H](N)C(=O)NCCCNCCCCNCCCN` [IB7] belongs 13 µM. In the case of `CCCCCCC(=O)NCCCC[C@@H](N)C(=O)NCCCNCCCCNCCCN` [IB8], in assay [1] (read-out: Ave EC50 value), the half-maximal effective concentration (EC50) amounted to 3.5 µM. On the same count and under the same terms, to `CCCCCC(=O)NCCCC[C@@H](N)C(=O)NCCCNCCCCNCCCN` [IB9] belongs 12 µM; to `NCCCNCCCCNCCCNC(=O)[C@H](N)CCCCNC(=O)c1ccccc1` [IB24], 30 µM.

Regarding `NCCCNCCCCNCCCNC(=O)[C@H](N)CCCCNC(=O)c1ccco1` [IB25], the concentration giving a half-maximal response (EC50) in assay [1] (read-out: Ave EC50 value) is 10 µM.

With `NCCCNCCCCNCCCNC(=O)[C@H](N)CCCCNC(=O)c1ccc(-c2ccccc2)cc1` [IB26], in [1] (read-out: Ave EC50 value), the EC50 amounted to 1.1 µM. The same measure, in the same setting: to `NCCCNCCCCNCCCNC(=O)[C@H](N)CCCCNC(=O)C(c1ccccc1)c1ccccc1` [IB29] belongs 2.1 µM; to `NCCCNCCCCNCCCNC(=O)[C@H](N)CCCCNC(=O)C12CC3CC(CC(C3)C1)C2` [IB30], 2 µM. Still for that read-out and setting: next, `CC(C)C(=O)NCCCC[C@@H](N)C(=O)NCCCNCCCCNCCCN` [IB33]: 8.4 µM; `CC(C)(C)C(=O)NCCCC[C@@H](N)C(=O)NCCCNCCCCNCCCN` [IB34]: 8.5 µM. Turning to `CC(C)(C)CC(=O)NCCCC[C@@H](N)C(=O)NCCCNCCCCNCCCN` [IB36], the EC50 in assay [1] (read-out: Ave EC50 value) was found to be 27 µM.

As for `NCCCNCCCCNCCCNC(=O)[C@H](N)CCCCNC(=O)CC1CC2CCC1C2` (stereo partly shown) [IB37], the EC50 in assay [1] (read-out: Ave EC50 value) amounted to 41 µM. On the same count and under the same terms, to `CC(C)[C@@H]1CC[C@@H](C)C[C@H]1OCC(=O)NCCCC[C@@H](N)C(=O)NCCCNCCCCNCCCN` [IB38] belongs 13 µM. On to `CCCCNCCCC[C@@H](N)C(=O)NCCCNCCCCNCCCN` [IVB3], for which the EC50 in [1] (read-out: Ave EC50 Value) stood at 2.19 µM.

With `CCCCCCNCCCC[C@@H](N)C(=O)NCCCNCCCCNCCCN` [IVB5], the EC50 in assay [1] (read-out: Ave EC50 Value) was 0.71 µM. The same measure, in the same setting: to `CCCCCCCNCCCC[C@@H](N)C(=O)NCCCNCCCCNCCCN` [IVB6] belongs 0.89 µM; to `CC(C)CCNCCCC[C@@H](N)C(=O)NCCCNCCCCNCCCN` [IVB21], 1.32 µM. Same read-out and setting: to `CC(C)(C)CCNCCCC[C@@H](N)C(=O)NCCCNCCCCNCCCN` [IVB22] belongs 0.68 µM; to `CC(C)CNCCCC[C@@H](N)C(=O)NCCCNCCCCNCCCN` [IVB23], 1.79 µM. For the compound `CC(C)(C)CNCCCC[C@@H](N)C(=O)NCCCNCCCCNCCCN` [IVB24], the EC50 in assay [1] (read-out: Ave EC50 Value) stood at 1.32 µM. Same read-out and setting: next, `NCCCNCCCCNCCCNC(=O)[C@H](N)CCCCNCC1CC2C=CC1C2` (stereo partly shown) [IVB25]: 0.89 µM; `NCCCNCCCCNCCCNC(=O)[C@H](N)CCCCNCC1CCCCC1` [IVB27]: 0.61 µM; `CC(C)=CCC[C@H](C)CCNCCCC[C@@H](N)C(=O)NCCCNCCCCNCCCN` [IVB28]: 12.8 µM. With `NCCCNCCCCNCCCNC(=O)[C@H](N)CCCCNCc1ccc(-c2ccccc2)cc1` [IVB33], the concentration for a half-maximal effect (EC50) in assay [1] (read-out: Ave EC50 Value) was 1.38 µM. Turning to `CC(/C=N/NC(=N)N)=N\NC(=N)N` [MGBG, methylglycoxal bis(guanylhydrazone)], the “ED50, inhibition of the growth of cultured follicles” value in assay [8] was approximately 5 µM. For the compound `CCCCCCCCCCCCCCCC(=O)NCCCC[C@H](N)C(=O)NCCCNCCCCNCCCN` [MQT 2], in assay [9], the EC50 is 0.044 µM. For the same compound, the “% HGI” value in assay [5] (setting [13]) worked out at 97%. `NCCCNCCCCNCCCNC(=O)[C@@H](N)CCCCNCC1CCCCC1` [MQT 3] showed an EC50 in assay [9] of 0.78 µM. The “% HGI” value in [5] (compound with BHT 0.5%, 70% ethanol, pH 7.0, once a day for 18 days) was determined as 68%; in [5] (setting [13]), 93%. In the case of `CC(C)(C)CCNCCCC[C@H](N)C(=O)NCCCNCCCCNCCCN` [MQT 4], the EC50 in [9] was found to be 1.6 µM. Also, the “% HGI” value in assay [5] (setting [13]) is listed as 63%; in assay [5] (setting [11]), 66%.

The compound `CCCCCCCC(=O)NCCCC[C@H](N)C(=O)NCCCNCCCCNCCCN` [MQT 5] displayed an EC50 in [9] of 2.2 µM. In addition, the “% HGI” value in assay [5] (setting [13]) worked out at 47%.

In turn, `CCCCCCCNCCCC[C@H](N)C(=O)NCCCNCCCCNCCCN` [MQT 6] returned an EC50 in assay [9] of 0.38 µM. Besides, the “% HGI” value in assay [5] (setting [13]) amounted to 79%. For the compound `NCCCCCCNCCCCCCNCc1ccc(CNCCCN)cc1` [MQT 7], in assay [5] (setting [11]), the “% HGI” value stood at 94%. The same measure, in the same setting: next, `NCCCCCCNCCCCCNCCN` [MQT 8]: 53%.

`CCCC(CCC)NCCCC[C@H](N)C(=O)NCCCNCCCCNCCCN` [VA26]: in [1] (read-out: Ave EC50 Value), the EC50 is 4.14 µM. Still for that read-out and setting: next, `CC(C)[C@@H]1CC[C@@H](C)CC1NCCCC[C@@H](N)C(=O)NCCCNCCCCNCCCN` (stereo partly shown) [VB28]: 1.45 µM. For the compound `NC1CCCCC1` [cyclohexylamine], the half-inhibitory concentration (IC50) in assay [4] (read-out: IC50) is 8.1 µM. For the compound `NC1CC2CCC1C2` (stereo not drawn) [exo-2-aminonorbornane], the IC50 in assay [4] (read-out: IC50) was 5.5 µM. For `NCCCCN` [putrescine], the “inhibition … of ODC activity” value in assay [2] was 50%. With `NCCCCNCCCN` [spermidine], the “inhibition … of ODC activity” value in assay [2] is listed as 90%. The “recovery of DNA synthesis” value in assay [10] is “Complete recovery of DNA synthesis”. On to `NCCCNCCCCNCCCN` [spermine], for which the “inhibition … of ODC activity” value in assay [2] is listed as 90%. Also, the “recovery of DNA synthesis” value in assay [10] is given as “did not overcome the MGBG-mediated inhibition”. In the case of `NC1CCC(N)(C(=O)O)CC1` (stereo not drawn) [trans-1,4-diaminocyclohexane-1-carboxylic acid], the Ki in assay [3] was 70 µM.

Turning to `NC/C=C/C(N)C(=O)O` (stereo not drawn) [trans-3-dehydroornithine], in [3], the inhibitory constant (Ki) is 4.4 µM. As for `C[C@H]1CC[C@H](N)CC1` [trans-4-methylcyclohexylamine], in [4] (read-out: IC50), the half-inhibitory concentration (IC50) is 1.7 µM. Consider `NCCCC(NN)C(=O)O` (stereo not drawn) [α-Hydrazinoornithine], for which the Ki in assay [3] was 0.5 µM.

Consider `C[C@](N)(CCCN)C(=O)O` [α-methylornithine], for which the Ki in assay [3] was 40 µM.

The record behind these values is patent US7432302B2, “Composition containing polyamine transport inhibitor and use thereof” (MediQuest Therapeutics, Inc., priority 2001, dated 2008).
